Measurements published in ChEMBL document CHEMBL5046253, “Synthesis and bioevaluation of diaryl urea derivatives as potential antitumor agents for the treatment of human colorectal cancer” (Eur J Med Chem, 2022).

What was measured:
HCT-116 [1] = test: Antitumor activity against human HCT-116 cells xenografted in BALB/c nude mouse assessed as tumor size at 20 mg/kg, iv administered for 19 days (reference value: 1264.1+/-95.7 mm3); type: functional; details: time 19 day
[2] = biological target: Voltage-gated inwardly rectifying potassium channel KCNH2 (Homo sapiens, UniProt Q12809); test: Inhibition of human ERG transfected in CHO cells by automated patch method; type: toxicity, cell-based
Sequence of Voltage-gated inwardly rectifying potassium channel KCNH2 (Q12809 whole entry): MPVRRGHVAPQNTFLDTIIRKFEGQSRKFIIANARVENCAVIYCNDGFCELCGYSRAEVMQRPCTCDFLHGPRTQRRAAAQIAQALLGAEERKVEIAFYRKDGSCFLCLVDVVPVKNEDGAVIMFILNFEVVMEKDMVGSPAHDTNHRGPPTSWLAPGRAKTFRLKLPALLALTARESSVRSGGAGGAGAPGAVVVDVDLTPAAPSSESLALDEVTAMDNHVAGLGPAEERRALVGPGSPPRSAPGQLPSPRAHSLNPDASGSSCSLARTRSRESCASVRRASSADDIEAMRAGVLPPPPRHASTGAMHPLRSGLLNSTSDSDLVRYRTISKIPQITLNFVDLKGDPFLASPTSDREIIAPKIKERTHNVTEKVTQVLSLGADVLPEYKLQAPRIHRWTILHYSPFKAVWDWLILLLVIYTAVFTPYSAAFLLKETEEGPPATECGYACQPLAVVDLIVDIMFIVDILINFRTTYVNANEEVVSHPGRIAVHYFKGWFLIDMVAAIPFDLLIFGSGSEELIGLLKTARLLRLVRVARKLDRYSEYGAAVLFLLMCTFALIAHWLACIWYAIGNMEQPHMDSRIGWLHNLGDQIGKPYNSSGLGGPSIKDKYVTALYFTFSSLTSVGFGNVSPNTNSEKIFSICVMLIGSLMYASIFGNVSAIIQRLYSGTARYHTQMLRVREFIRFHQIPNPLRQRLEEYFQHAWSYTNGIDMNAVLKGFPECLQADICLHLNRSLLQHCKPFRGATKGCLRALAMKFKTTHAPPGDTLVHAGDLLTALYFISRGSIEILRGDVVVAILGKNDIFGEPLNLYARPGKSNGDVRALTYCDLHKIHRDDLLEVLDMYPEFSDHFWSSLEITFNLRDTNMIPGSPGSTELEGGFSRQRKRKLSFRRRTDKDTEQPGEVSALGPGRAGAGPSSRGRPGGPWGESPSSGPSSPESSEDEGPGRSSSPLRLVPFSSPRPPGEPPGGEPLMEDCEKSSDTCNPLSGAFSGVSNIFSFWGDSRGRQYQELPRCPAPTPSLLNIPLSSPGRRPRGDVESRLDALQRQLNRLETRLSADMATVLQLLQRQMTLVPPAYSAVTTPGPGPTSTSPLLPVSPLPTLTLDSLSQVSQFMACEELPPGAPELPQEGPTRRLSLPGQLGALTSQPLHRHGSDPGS

HCT-116 [3] = test: Inhibition of cell migration in human HCT-116 cells at 1.5 uM measured after 24 hrs by wound healing assay (reference value: 31.16 %); type: functional
HCT-116 [4] = test: Induction of apoptosis in human HCT-116 cells assessed as viable cells at 5 uM incubated for 24 hrs by annexin V FITC/propidium iodide staining based flow cytometry (reference value: 81.2 %); type: functional; details: read-out: Activity
[5] = biological target: Serine/threonine-protein kinase mTOR (Homo sapiens, UniProt P42345); test: Inhibition of mTOR (unknown origin) using U-Light-4E-BP1 peptide as a substrate in presence of ATP incubated for 45 mins by Lance ultra assay
HCT-116 [6] = test: Induction of apoptosis in human HCT-116 cells assessed as early apoptotic cells at 2.5 uM incubated for 24 hrs by annexin V FITC/propidium iodide staining based flow cytometry (reference value: 11.1 %); type: functional
Lung = test: Toxicity in BALB/c mouse assessed as effect on lungs by H and E staining based histological analysis; type: tissue-based; details: in vivo
[7] = MRT in Sprague-Dawley rat at 20 mg/kg, iv by LC-MS/MS analysis; type: ADME, organism-based; details: in vivo
[8] = AUC (0 to 72 hrs) in Sprague-Dawley rat at 20 mg/kg, iv by LC-MS/MS analysis; type: ADME, organism-based; parameters: time < 72 hr, route intravenous, dose 20 mg/kg; details: in vivo
[9] = Tmax in Sprague-Dawley rat at 20 mg/kg, iv by LC-MS/MS analysis; type: ADME, organism-based; details: in vivo
HCT-116 [10] = test: Induction of apoptosis in human HCT-116 cells assessed as necrotic cells at 5 uM incubated for 24 hrs by annexin V FITC/propidium iodide staining based flow cytometry (reference value: 0.9 %); type: functional
HCT-116 [11] = test: Inhibition of cell migration in human HCT-116 cells at 3 uM measured after 24 hrs by wound healing assay (reference value: 31.16 %); type: functional
Kidney = test: Toxicity in BALB/c mouse assessed as effect on kidney by H and E staining based histological analysis; type: tissue-based; details: in vivo
HCT-116 [12] = test: Induction of apoptosis in human HCT-116 cells assessed as early apoptotic cells at 10 uM incubated for 24 hrs by annexin V FITC/propidium iodide staining based flow cytometry (reference value: 11.1 %); type: functional
HCT-116 [13] = test: Induction of cell cycle arrest in human HCT-116 cells assessed as increase in accumulation at G2/M phase at 1.5 to 6 uM after 24 hrs by propidium iodide staining based flow cytometric analysis (reference value: 19.1 %); type: functional; details: dose 1.5-6 µM
Heart = test: Toxicity in BALB/c mouse assessed as effect on heart by H and E staining based histological analysis; type: tissue-based; details: in vivo
HCT-116 [14] = test: Antiproliferative activity against human HCT-116 cells assessed as reduction in cell viability incubated for 48 hrs by MTT assay; type: functional, cell-based; details: HCT-116, 48 h
MDA-MB-231 = test: Antiproliferative activity against human MDA-MB-231 cells assessed as reduction in cell viability incubated for 48 hrs by MTT assay; type: functional, cell-based; details: MDA-MB-231, 48 h
HeLa = test: Antiproliferative activity against human HeLa cells assessed as reduction in cell viability incubated for 48 hrs by MTT assay; type: functional, cell-based
Cytochrome P450 3A4 = Cytochrome P450 3A4 (Homo sapiens, UniProt P08684); test: Inhibition of CYP3A4 (unknown origin); type: ADME
Sequence of Cytochrome P450 3A4 (P08684 whole entry): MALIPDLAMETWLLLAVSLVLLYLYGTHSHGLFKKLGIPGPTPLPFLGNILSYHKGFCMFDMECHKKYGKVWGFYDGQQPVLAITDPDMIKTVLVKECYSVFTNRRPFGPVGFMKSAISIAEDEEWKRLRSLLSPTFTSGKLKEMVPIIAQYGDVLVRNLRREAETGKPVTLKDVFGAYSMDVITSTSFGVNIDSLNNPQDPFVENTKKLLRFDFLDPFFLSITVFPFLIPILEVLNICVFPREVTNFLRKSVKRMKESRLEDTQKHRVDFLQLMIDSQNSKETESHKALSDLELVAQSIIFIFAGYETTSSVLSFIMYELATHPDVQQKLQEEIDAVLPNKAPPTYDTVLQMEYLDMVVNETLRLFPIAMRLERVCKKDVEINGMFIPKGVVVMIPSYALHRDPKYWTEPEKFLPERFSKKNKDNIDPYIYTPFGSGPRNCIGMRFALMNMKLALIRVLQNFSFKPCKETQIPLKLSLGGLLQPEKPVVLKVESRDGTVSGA

[15] = Stability in Sprague-Dawley rat plasma; type: ADME, cell-free
[16] = Volume of distribution at steady state in Sprague-Dawley rat at 20 mg/kg, iv by LC-MS/MS analysis; type: ADME, organism-based; details: in vivo
MCF7 = test: Antiproliferative activity against human MCF7 cells assessed as reduction in cell viability incubated for 48 hrs by MTT assay; type: functional, cell-based; details: MCF7, 48 h
HCT-116 [17] = test: Inhibition of cell migration in human HCT-116 cells at 6 uM measured after 24 hrs by wound healing assay (reference value: 31.16 %); type: functional
HCT-116 [18] = test: Induction of apoptosis in human HCT-116 cells assessed as early apoptotic cells at 5 uM incubated for 24 hrs by annexin V FITC/propidium iodide staining based flow cytometry (reference value: 11.1 %); type: functional
Liver = test: Toxicity in BALB/c mouse assessed as effect on liver by H and E staining based histological analysis; type: tissue-based; details: in vivo
Spleen = test: Toxicity in BALB/c mouse assessed as effect on spleen by H and E staining based histological analysis; type: tissue-based; details: in vivo
[19] = biological target: Phosphatidylinositol 4,5-bisphosphate 3-kinase catalytic subunit gamma isoform (Homo sapiens, UniProt P48736); test: Inhibition of PI3Kgamma (unknown origin) using PIP2 as substrate in presence of ATP incubated for 60 mins by ADP-glo based luminescence assay
Sequence of Phosphatidylinositol 4,5-bisphosphate 3-kinase catalytic subunit gamma isoform (P48736 whole entry, canonical isoform): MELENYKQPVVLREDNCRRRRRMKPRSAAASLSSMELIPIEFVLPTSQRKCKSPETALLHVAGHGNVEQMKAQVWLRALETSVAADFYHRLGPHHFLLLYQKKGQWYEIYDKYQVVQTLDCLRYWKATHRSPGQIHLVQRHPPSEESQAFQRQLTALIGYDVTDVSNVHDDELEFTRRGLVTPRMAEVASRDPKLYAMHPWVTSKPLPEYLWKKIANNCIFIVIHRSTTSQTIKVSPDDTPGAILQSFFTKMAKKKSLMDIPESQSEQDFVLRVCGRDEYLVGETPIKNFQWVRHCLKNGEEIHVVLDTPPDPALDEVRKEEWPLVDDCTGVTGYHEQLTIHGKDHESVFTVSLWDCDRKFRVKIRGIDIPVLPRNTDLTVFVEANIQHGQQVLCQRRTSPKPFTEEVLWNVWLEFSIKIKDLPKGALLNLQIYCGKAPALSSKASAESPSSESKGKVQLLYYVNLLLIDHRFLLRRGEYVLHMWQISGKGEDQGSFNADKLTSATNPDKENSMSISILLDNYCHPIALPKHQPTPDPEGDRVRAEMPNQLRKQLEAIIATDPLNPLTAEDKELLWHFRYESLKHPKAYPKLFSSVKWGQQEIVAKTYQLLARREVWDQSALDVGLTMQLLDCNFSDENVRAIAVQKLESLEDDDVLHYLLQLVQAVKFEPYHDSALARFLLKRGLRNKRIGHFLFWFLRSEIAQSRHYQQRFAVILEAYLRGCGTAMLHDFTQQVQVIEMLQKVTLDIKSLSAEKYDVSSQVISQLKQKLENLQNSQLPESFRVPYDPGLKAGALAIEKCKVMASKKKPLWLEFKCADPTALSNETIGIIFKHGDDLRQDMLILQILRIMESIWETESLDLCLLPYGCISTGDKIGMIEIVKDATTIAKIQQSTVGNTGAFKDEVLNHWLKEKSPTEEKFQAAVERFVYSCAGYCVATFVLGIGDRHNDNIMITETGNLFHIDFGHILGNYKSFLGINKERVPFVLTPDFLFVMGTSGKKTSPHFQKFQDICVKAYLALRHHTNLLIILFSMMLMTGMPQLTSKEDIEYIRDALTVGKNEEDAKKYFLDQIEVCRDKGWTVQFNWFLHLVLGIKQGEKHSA

[20] = Stability of the compound in simulated gastrointestinal fluid; type: ADME
Cytochrome P450 2C19 = Cytochrome P450 2C19 (Homo sapiens, UniProt P33261); test: Inhibition of CYP2C19 (unknown origin); type: ADME
Sequence of Cytochrome P450 2C19 (P33261 whole entry): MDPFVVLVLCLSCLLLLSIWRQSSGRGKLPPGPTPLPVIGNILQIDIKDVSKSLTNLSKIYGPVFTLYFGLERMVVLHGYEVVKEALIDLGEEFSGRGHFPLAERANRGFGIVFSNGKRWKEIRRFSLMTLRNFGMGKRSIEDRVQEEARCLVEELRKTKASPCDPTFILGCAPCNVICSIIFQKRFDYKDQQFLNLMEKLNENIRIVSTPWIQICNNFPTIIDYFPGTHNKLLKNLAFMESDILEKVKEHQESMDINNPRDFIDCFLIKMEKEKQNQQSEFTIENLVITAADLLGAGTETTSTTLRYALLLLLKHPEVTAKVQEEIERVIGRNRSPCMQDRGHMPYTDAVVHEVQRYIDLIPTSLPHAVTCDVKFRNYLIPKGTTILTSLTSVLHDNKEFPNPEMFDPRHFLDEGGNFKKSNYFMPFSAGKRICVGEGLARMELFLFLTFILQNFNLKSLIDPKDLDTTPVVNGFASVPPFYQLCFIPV

HCT-116 [21] = test: Induction of apoptosis in human HCT-116 cells assessed as viable cells at 2.5 uM incubated for 24 hrs by annexin V FITC/propidium iodide staining based flow cytometry (reference value: 81.2 %); type: functional; details: read-out: Activity

Compound `NC(=O)[C@@H]1CCCN1C(=O)c1ccc(NC(=O)Nc2ccc(-c3nc(N4CCOCC4)nc(N4CCOCC4)n3)cc2)cc1` has an Activity (HCT-116 [1]) of 796.2 mm3, an IC50 [2] of over 30 µM and an inhibition at 1.5 µM (HCT-116 [3]) of 12.2%. The viability at 5 µM (HCT-116 [4]) was 75.2%, the IC50 [5] was 3.3 nM and the Activity (HCT-116 [6]) was 18.5%. For the same compound, the Activity (Lung) was “Non-Toxic”, the MRT [7] was 10.4 h and the AUC(0-t) at 72 h [8] was 30000 ng·h/mL. It also gave a Tmax [9] of 1.8 min, an Activity (HCT-116 [10]) of 1.79% and an inhibition at 3 µM (HCT-116 [11]) of 9.72%. For the same compound, the Activity (Kidney) was “Non-Toxic”, the Activity (HCT-116 [12]) was 24.9% and the Activity (HCT-116 [13]) was 22.2%. The Activity (Heart) was “Non-Toxic”, the IC50 (HCT-116 [14]) was 110 nM and the IC50 (MDA-MB-231) was 6.48 µM. The IC50 (HeLa) was 13.4 µM, the IC50 (Cytochrome P450 3A4) was over 50 µM and the Stability [15] was “Stable”. It also gave a Vdss [16] of 17.9 L/kg, an IC50 (MCF7) of 2220 nM and an inhibition at 6 µM (HCT-116 [17]) of 6.4%. The Activity (HCT-116 [18]) was 13.3%, the Activity (Liver) was “Non-Toxic” and the Activity (Spleen) was “Non-Toxic”. The IC50 [19] was 8.7 nM, the Stability [20] was “Stable” and the IC50 (Cytochrome P450 2C19) was over 50 µM. It also gave a viability at 2.5 µM (HCT-116 [21]) of 58.7%.
